Values quoted from earlier work as cited in PMC12503259, “Establishment of an in vivo analytical method for detecting total anti-UFH activity and pharmacokinetic study in PS and R15 in rats” (PLOS One, 2025).

What was measured:
[1] = clinical practice; cited from earlier work
Source text: In clinical practice, PS is typically administered at 1.2 times the anti-heparin activity of circulating UFH to achieve complete neutralization [40, 41].

[2] = UFH 300 U·kg^-1 in rats, preliminary experimental data; cited from earlier work
Source text: A dose of 300 U· kg^-1 dose of UFH is considered clinically effective. […] Accordingly, we performed pharmacokinetic studies of PS at 300 U kg^-1, and of R15 at 300, 900, and 2700 U· kg^-1 to determine whether R15 follows linear or nonlinear pharmacokinetics.

What does the source list for Unfractionated heparin [UFH]?
T1/2 [1]: 1 to 2 h; duration of heparinization [2]: at least 4 hours
